Laboratory results as given in patent US4444758A, “Nonapeptide for treating addictive drug withdrawal conditions” (priority 1981, dated 1984).
Where no end group is shown, it is not given here.

Assays:
morphine-dependent mouse = assay: Inhibition of the naloxone-triggered withdrawal leaps of the morphine-dependent mouse; type: in vivo; conditions: 30 mg . kg^-1 s.c., positive control
Experimental: In order to produce the dependence a compressed tablet, which contained 75 mg of morphine (base) and which progressively dissolved with continuous liberation of the morphine, was implanted under the dorsal skin of male mice (weight about 22 g). On the third day after the implantation the morphine antagonist naloxone in a dosage of 0.1 mg/kg was administered subcutaneously to the animals in order to trigger off the withdrawal leaps.
After the injection, the leaps of each individual animal were counted for 20 minutes. The group median value was calculated from the total leaps of 8 animals, which formed a group. As the positive control the animals of one group received 30 mg/kg of morphine subcutaneously 30 minutes before administration of the antagonist. Two to four groups received 10 ml/kg of physiological sodium chloride solution (negative control) 2 hours before the naloxone administration intravenously. The remaining groups received DSIP in various dosages (0.01, 0.015, 0.03, 0.06 and 0.1 mg/kg, intravenously and 0.03, 0.1 and 0.3 mg/kg, subcutaneously) 2 hours before the naloxone administration. The dosage median values and, respectively, control median values were calculated from all individual values per dosage and, respectively, the positive and negative controls.

[1] = tested on: alcoholic or methadone- or heroin-dependent patients; conditions: human, in vivo
Experimental: Of the 25 alcoholic patients 8 were on admission already in delirium tremens to a medium to severe degrees. After the first subjective and objective withdrawal signs manifested themselves the patients received up to 4 intravenous infusions of in each case 0.0214 mg/kg of DSIP daily. For this purpose, the substance was dissolved in physiological sodium chloride solution and infused in the course of 5 minutes.
The duration of treatment amounted to a maximum of 3 days.

rats [2] = assay: 4-week intravenous toxicological study in rats
Experimental: (§1) Toxicological studies were carried out on 12 male and 12 female rats as well as on 3 male and 3 female dogs per dosage. For this purpose DSIP was dissolved in physiological sodium chloride solution and administered intravenously daily for 4 weeks in the dosages of 0.6, 1.8 and 6 mg/kg. At an interval of 2 weeks during these studies the hematological, hematochemical and the urine status were determined, and the electrocardiogram was recorded and analyzed
(§2) At the termination of the aforementioned studies all animals were painlessly killed and there followed the autopsy besides the removal of organ samples for histological investigations.

dogs [3] = conditions: dog, in vivo
Experimental: as §1, §2

dogs [4] = assay: 4-week intravenous toxicological study in dogs
Experimental: as §1, §2

rats [5] = conditions: rat, in vivo
Experimental: as §1, §2

[6] = maximum dosage (6 mg/kg i.v. daily for 4 weeks)

Compound | Leaps/animal (median) (morphine-dependent mouse; 30 minutes before naloxone 0.1 mg/kg s.c., leaps counted for 20 minutes) | % of a negative control (morphine-dependent mouse; 30 minutes before naloxone) | Tolerance of DSIP: poor, number of patients [1] | Histological analysis of about 30 organs and of the injection sites (rats [2]; i.v. daily for 4 weeks) | Changes in the electrocardiogram (rats [2]; [6]) | Hematological, hematochemical and urine values (rats [2]; [6]) | Tolerance of the dosages (side effects) (dogs [3]) | Local tolerance at the injection sites (dogs [3]; iv) | Histological analysis of about 30 organs and of the injection sites (dogs [4]; i.v. daily for 4 weeks) | Changes in the electrocardiogram (dogs [4]; [6]) | Hematological, hematochemical and urine values (dogs [4]; [6]) | Tolerance of the dosages (side effects) (rats [5]) | Local tolerance at the injection sites (rats [5]; iv)
CN1CC[C@]23c4c5ccc(O)c4O[C@H]2[C@@H](O)C=C[C@H]3[C@H]1C5 [Morphine, morphine] | 43 Leaps/animal | 27% | – | – | – | – | – | – | – | – | – | – | –
WAGGDASGE [DSIP, Trp--Ala--Gly--Gly--Asp--Ala--Ser--Gly--Glu] | – | – | 2 patients | not the slightest evidence of damage to organs | no changes in the electrocardiogram | within the physiological limits | tolerated without any side effects | excellent | not the slightest evidence of damage to organs | no changes in the electrocardiogram | within the physiological limits | tolerated without any side effects | excellent
